Reference: paper PMC3857149, “Identification of Three Antiviral Inhibitors against Japanese Encephalitis Virus from Library of Pharmacologically Active Compounds 1280” (PLoS ONE, 2013)

Columns and labels:
[1] = Cytotoxicity of compounds (Celltiter-Glo cell viability); type: cell-based; details: hamster; BHK-21 cells, 120 h incubation; read-out: CC50 (50% cytotoxicity concentration)
Method: (§1) Cell viability was evaluated by Celltiter-Glo Luminescent Cell Viability Assay reagent (Promega, Madison, WI, USA) following the manufacturer's protocol. An equal volume of Celltiter-Glo reagents was added to the cells in 96-well white plates (Corning, Tewksbury, MA, USA) and mixed for 2 min on an orbital shaker and incubated for a further 10 min at room temperature. The luminescence of each well was measured by a 1450 MicroBeta TriLux (Perkin Elmer, Waltham, MA, USA). Percentage of cell viability was calculated as follows: Percentage of cell viability = 100× (luminescence of experimental group/luminescence of control group).
BHK-21 cells were seeded in 96-well white plates at 10,000 cells per well. After 12 h incubation for cell attachment, different concentrations of compounds were added to the cells. Cell viability was tested as described above after 120 h incubation. The 50% cytotoxicity concentration (CC50) was calculated by nonlinear regression analysis.

JEV [2] = experiment: Indirect immunofluorescence assay (IFA, anti-NS5) in infected BHK-21 cells; type: cell-based, Japanese encephalitis virus; details: MOI 0.01, 48 h post-infection; for JEV-negative cells: 5 µM compound; for JEV replication / JEV-positive cells (IFA): 20 µM compound
Method: BHK-21 cells were seeded in 12-well plates and inoculated with JEV at MOI 0.01 after 12 h incubation. The compounds were added to cells at concentrations of 5 or 20 µM. After incubation for a further 48 h, virus replication in the cells was evaluated by IFA. The cells were fixed in formaldehyde for 5 min and were incubated with anti-NS5 Mab (1∶500) and then FITC-conjugated goat anti-mouse antibody (Boster) for 30 min respectively. Finally, the cells were stained with DAPI (Sigma-Aldrich) and imaged by a fluorescence microscope (Olympus IX70; Olympus, Tokyo, Japan).

JEV (P3 strain) = experiment: CPE-based EC50 assay, JEV-infected BHK-21 cells; type: cell-based, Japanese encephalitis virus; details: for EC50: Japanese encephalitis virus, BHK-21, 120 h; for selectivity index: from CC50 and EC50 in BHK-21 cells
Method: as §1
BHK-21 cells were seeded onto 96-well plates at 10,000 cells per well. After 12 h incubation, the culture supernatant was replaced with maintenance medium. One microliter of each compound was added to 99 µL maintenance medium in the first well, followed by twofold serial dilutions for two wells. After full mixing in the third well, 50 µL medium was discarded. Then, 50 µL maintenance medium containing 0.02 MOI JEV was added to each well. The plates were subjected to 30 s horizontal shaking to achieve thorough mixing. Three wells of mock-infected cells as well as three wells of JEV-infected cells containing 1% DMSO were set on each plate as controls. After 120 h incubation, the percentage of CPE inhibition was calculated as previously described: Percentage of inhibition = (luminescence of experimental group – average luminescence of virus control) / (average luminescence of cell control – average luminescence of virus control) ×100.
BHK-21 cells were seeded in 96-well white plates at 10,000 cells per well. Twelve hours later, the growth medium was replaced with maintenance medium containing 0.01 MOI JEV as well as different concentrations of compounds. Cell incubation was continued for 120 h, and the percentage of inhibition was measured as described above. The EC50 values were calculated by nonlinear regression analysis.

JEV [3] = experiment: Western blotting of JEV envelope (E) protein expression in infected BHK-21 cells; type: cell-based, Japanese encephalitis virus; details: MOI 0.01, 48 h, normalized to GAPDH
Method: BHK-21 cells in 12-well plates were infected with JEV at MOI 0.01. The compounds were then added to cells at final concentrations of 10 and 20 µM. After incubation for 48 h, expression of JEV envelope (E) protein was detected by western blotting. The cells were collected after trypsin digestion and washed in PBS. The cell suspension was mixed with an equal volume of 2×SDS sample buffer. The proteins were electrophoresed in 12% SDS-PAGE and transferred to a nitrocellulose filter membrane (Millipore, Darmstadt, Germany). Western blotting was performed with JEV E protein-specific monoclonal antibody (Mab; 1∶500, constructed in our laboratory) or GAPDH-specific Mab (1∶1000; Proteintech, Chicago, IL, USA) as the primary antibodies, followed by addition of horseradish-peroxidase-conjugated goat anti-mouse IgG (Boster, Wuhan, China) as the secondary antibody. Finally, the protein blots were detected with SuperSignal West Pico Chemiluminescent Substrate (Thermo Scientific, Rockford, IL, USA) and imaged by a MF-ChemiBIS 3.2 (DNR Bio-Imaging Systems, Mahale Hahamisha, Israel). The expression of E and GAPDH was quantified by gray-value analysis using software ImageJ. The expression of E protein was normalized by the expression of GAPDH and the changes of E expression were calculated by comparing to the non-compound treated group.

JEV [4] = experiment: Plaque reduction assay; type: cell-based, Japanese encephalitis virus
Method: BHK-21 cells were plated in 96-well plates at a density of 10,000 cells per well and grown for 12 h for cell attachment. The cells were infected with JEV at MOI 0.01 in the presence of different concentrations (20, 15, 10, and 5 µM) of compounds. Each concentration was assayed in triplicate. Forty-eight hours post-infection, the viruses in each group were harvested by freezing/thawing three times and mixed in a tube. Then, 50 µL virus suspension was inoculated into BHK-21 cells in 12-well plates for the plaque assay, as previously described.

[5] = cited from earlier work
[6] = cited from earlier work; remark: listed apart in the source

O=C(Nc1ccc([N+](=O)[O-])cc1Cl)c1cc(Cl)ccc1O [niclosamide]
CC50 at 120 h [1]: 43.3 µM | JEV-negative cells (JEV [2]): ~30% | JEV replication / JEV-positive cells (IFA) (JEV [2]): few cells were JEV-positive | EC50 (JEV (P3 strain)): 5.8 µM | selectivity index (JEV (P3 strain)): 7.49 | E expression decrease (gray-value analysis) (JEV [3]; 10 µM compound): about 85%

COCCOC(=O)C1=C(C)NC(C)=C(C(=O)OC/C=C/c2ccccc2)C1c1cccc([N+](=O)[O-])c1 (centres unmarked) [cilnidipine]
CC50 at 120 h [1]: > 200 µM | JEV-negative cells (JEV [2]): ~60% | JEV replication / JEV-positive cells (IFA) (JEV [2]): Absolute inhibition of JEV replication | replication of JEV (JEV [4]; 20 or 15 µM compound): almost completely inhibited | EC50 (JEV (P3 strain)): 6.52 µM | selectivity index (JEV (P3 strain)): 30.67 | MLD50 [5]: > 5000 mg/kg | E expression decrease (gray-value analysis) (JEV [3]; 10 µM compound): ~56% | E expression decrease (gray-value analysis) (JEV [3]; 20 µM compound): ~75%

CCCCCCN(CCCCCC)C(=O)Cc1c(-c2ccc(F)cc2)[nH]c2ccccc12 [FGIN-1-27, N,N-dihexyl-2-(4-fluorophenyl)indole-3-acetamide]
CC50 at 120 h [1]: 124 µM | JEV-negative cells (JEV [2]): about 80% | JEV replication / JEV-positive cells (IFA) (JEV [2]): few cells were JEV-positive | number of plaques (JEV [4]; 10 µM compound, 48 h, MOI 0.01): < 20 | virus titer (JEV [4]; 10 µM compound, 48 h, MOI 0.01, untreated 2.7×10^6 PFU/mL): < 400 PFU/mL | EC50 (JEV (P3 strain)): 3.21 µM | selectivity index (JEV (P3 strain)): 38.79 | ability to enter the brain [6]: had the ability to enter the brain
